The text below walks through data of patent US9409961B2, “Cell penetrating peptides to target EIF4E” (Hoffmann-La Roche Inc., priority 2012, dated 2016).

Read-outs that look alike come from different tables or passages of the source. Square brackets hold non-standard residues; d marks the D form. Peptide text beside a SMILES is read from it. Nle = CCCC[C@H](N)C(=O)O

Series [1] is described as follows: stability in rat plasma. As to conditions: Hannover Wistar, pH 7.4, Conc. 10 uM, 37° C. Type of series: in vitro ADME. The method, then:
(§1) The following study was conducted to assess the stability of the compound of Examples 2-4 (SEQ ID NOS: 9, 10 and 11) in Hannover Wistar rat and human plasma after 4 and 24 hours. Approximately, 2.0 mg of the compound of Examples 2-4 (SEQ ID NOS 9, 10 and 11) was weighed out and placed in a 4 mL amber vial. To this was added 1.0 mL DMSO. The vial was carefully vortexed to produce a solution of approximately 600 μM.
(§2) Hannover Wistar rat plasma and human plasma (anti-coagulant sodium EDTA) were pre-warmed to 37° C. for 30 minutes in a water bath. The pH of both plasmas was adjusted to pH7.4. 1.5 mL microcentrifuge vials were used.
(§3) The stock solution of the compound of Examples 2-4 was diluted into rat or human plasma to a final concentration of 10 μM. The two vials were gently vortexed ensuring proper mixing.
(§4) Six new vials were labeled as follows: rat T0, rat T4, rat T24, human T0, human T4, human T24. To each of these vials, 50 μL of treated plasma was added. The T4 and T24 vials were capped and placed in a 37° C. incubator for 4 and 24 hours, respectively.
(§5) To each of the two T0 vials, 50 μL of Sorensen buffer and 200 μL 1.0% acetic acid in acetonitrile were added. The T0 vials were then capped, vortexed and centrifuged at 10000×g for 10 minutes. Upon completion of centrifugation, 100 μL of the supernatant of each vial was added to a separate well in a 96-well injection block. 200 µL of 0.1% acetic acid in Milli-Q® water (Millipore) was then added to each well.
(§6) The above procedure as written with respect to the T0 vials was repeated for the two T4 vials at the 4 hour time point and the T24 vials at the 24 hour time point. With each time point a fresh T0 sample was prepared, as described above, to ensure there was no sample degradation.
(§7) All samples were analyzed by LC/MS/MS. The resulting chromatographs were processed to obtain peaks areas for each sample. The percent of compound remaining at each time point as compared with the amount present in the comparison T0 sample was calculated.

Series [2] addresses T1, human eIF4E (Homo sapiens, UniProt P06730).
T1 construct: made in house
Briefly: biochemical assay of peptide binding to human eIF4E (displacement of biotin labeled 4G2 peptide). On the procedure: A biochemical assay was run to test peptide binding to human eIF4E.
Human eIF4E (aa 28-217, SEQ ID NO: 87) with a C-terminal His tag (HH-eIF4E, SEQ ID NO: 88) was expressed in E. coli in inclusion bodies. The protein was solubilized with 8 M urea and purified under denaturing conditions using nickel-charged HisTrap HP columns (GE Healthcare). The protein was refolded by diluting to approximately 0.25 mg/mL with 6 M urea, 20 mM Hepes pH 7.0, 500 mM NaCl, 1 mM DTT, 1 mM EDTA, and 0.5 M arginine.HCl, and then dialyzing overnight into the same buffer without the urea. The protein was further dialyzed into 20 mM Hepes pH 6.5, 50 mM NaCl, 1 mM EDTA, and 1 mM DTT, filtered, and then concentrated using Hitrap SP sepharose FF columns (GE Healthcare). The protein was dialyzed into 20 mM Hepes pH 7.0, 500 mM NaCl, 5 mM DTT, and 10% glycerol and stored at −80° C. until use.
Test peptides (1.6 mM stock in DMSO) were diluted 3 fold in series in DMSO and solutions were diluted 4 fold in Assay Buffer (50 mM NaPi, pH 6.5, 50 mM KCl, 1 mM DTT, 0.004% NP40 and 0.5 mg/ml gammaglobulin). Six microliters per well of diluted peptide solutions and 12 microliters per well of 187.5 nM HH-eIF4E in Assay Buffer were added to 384-well polypropylene microplates (Matrix, Thermal Scientific). Twelve microliters per well of 187.5 nM biotin labeled 4G2 peptide (Ac-[…]Aha-Bio)-NH2 (SEQ ID NO: 91) 1:2 TFA) in Assay Buffer was added. The samples were incubated at room temperature for 20 minutes.
Six microliters per well of 4.8 nM Eu-streptavidin (Columbia Biosciences) and 48 nM Allophycocyanin-anti His antibody (Columbia Biosciences) in Assay Buffer (without DTT) were then added and the samples were incubated at room temperature for 30 min. Assay signals were monitored by reading emission fluorescence at 665 nm on an Envision Reader (PerkinElmer Life and Analytical Sciences). IC50 values were calculated using Condoseo software (Genedata AG, Basel, Switzerland).

For series [3], the system named is downstream target gene expression. Briefly: downstream target gene expression and apoptosis (FIG. 2). It is filed as cell-based.
A short description of series [4]: stability in human plasma. As to conditions: pH 7.4, Conc. 10 uM, 37° C. It is filed as in vitro ADME. On the procedure: as §1, §2, §3, §4, §5, §6, §7
The mark [5] stands for this setting: Binding affinities expressed as IC50, HH-eIF4E, biotin labeled 4G2 peptide.
Setting [6] is: IC50 (μM), Table 2a, cell penetrating peptides with the Y----LL-F and YWLLALFVY motifs.

T1 sequence (P06730 with tags, fused parts or gaps): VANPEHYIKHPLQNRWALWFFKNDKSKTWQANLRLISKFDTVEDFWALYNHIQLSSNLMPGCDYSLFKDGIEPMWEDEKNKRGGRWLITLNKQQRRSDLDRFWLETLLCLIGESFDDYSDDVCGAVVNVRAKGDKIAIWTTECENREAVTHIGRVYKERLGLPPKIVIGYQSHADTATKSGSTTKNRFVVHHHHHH

With “Ac-MAKLKYWLLALFVYMWTDLLLFKKRPKP-NH2 [SEQ ID NO: 9]”, in series [1], the amount remaining at 4 h, 10 µM is 91.7% and the fraction remaining at 24 h, 10 µM came to 18.2%. In addition, the IC50 in series [2] (setting [5]) worked out at 4.4 µM. Besides, in series [3], the apoptosis result was “induce apoptosis” and the “downstream target gene expression” value was “inhibit downstream target gene expression”. For the same compound, in series [4], the share remaining at 4 h, 10 µM worked out at 94.9% and the share remaining at 24 h, 10 µM amounted to 76.2%.
On to “Ac-MANLAYWLLALFVYMWTDLRLFKKRPKP-NH2 [SEQ ID NO: 10]”, for which, in series [1], the amount remaining at 4 h, 10 µM came to 102% and the share remaining at 24 h, 10 µM came out at 23.7%. In series [2] (setting [5]), this compound yielded an IC50 of 6.61 µM. The compound also showed an IC50 in series [2] (setting [6]) of 1.7 µM. Also, in series [3], the apoptosis entry was “induce apoptosis” and the “downstream target gene expression” value is given as “inhibit downstream target gene expression”. Also, in series [4], the fraction remaining at 4 h, 10 µM was 99.1% and the share remaining at 24 h, 10 µM came out at 45.2%.
“Ac-LAYWLLALFVYMWTDLRLFKKRPKP-NH2 [SEQ ID NO: 31]” displayed an IC50 in series [2] (setting [6]) of 4.35 µM.
In series [2] (IC50 (μM), Table 2, cell-penetrating peptides with the Y----LL-F motif), “Ac-MVKSKYGSWILLLFVAMWSDVGLCKKRPKP-NH2 [SEQ ID NO: 13]” registered a half-inhibitory concentration (IC50) of 6.89 µM.
Regarding “Ac-MAALAYWLLALFVYMWTDLLLFKKRPKP-NH2 [SEQ ID NO: 27]”, the IC50 in series [2] (setting [6]) is 10.7 µM.
For `CCCC[C@H](NC(=O)[C@H](Cc1ccccc1)NC(=O)[C@H](CCC(N)=O)NC(=O)[C@H](Cc1ccccc1)NC(=O)[C@H](C)NC(=O)[C@H](CC(C)C)NC(=O)[C@H](CC(C)C)NC(=O)[C@H](Cc1ccccc1)NC(=O)[C@H](CCC(=O)O)NC(=O)[C@H](CCCNC(=N)N)NC(=O)[C@H](CC(=O)O)NC(=O)[C@H](Cc1ccccc1)NC(=O)[C@H](CCCNC(=N)N)NC(=O)[C@H](CCCCN)NC(C)=O)C(N)=O` [SEQ ID NO: 84] (Ac-KRFDREFLLAFQF[Nle]-NH2), in series [2] (Table 1, peptides which bind eIF4E but are not cell-penetrating, read-out: IC50), the 50% inhibitory concentration (IC50) was 4.07 µM.

A word on the IC50: it is the concentration at which inhibition is half-maximal.
